Measured values taken from US7179825B2, “Retinoic acid mimetic anilides” (Janssen Pharmaceutica N.V., priority 1997, dated 2007).

Legend:
[1] = test system: metabolism of retinoic acid in human breast cancer cells; experiment: Inhibition of retinoic acid (RA) metabolism (Example C.1); type: cell-based; details: MCF-7 human breast cancer cells, 3H-RA as substrate, concentration needed to reduce the amount of metabolites to 50% of the control
Method in brief: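 MCF-7 cells, pre-stimulated with RA the day before, incubated with ³H-RA substrate and test compound in 1% DMSO. Polar ³H-metabolites separated from unmetabolized RA and counted by scintillation. IC50 is the concentration cutting metabolite formation to 50% of control, with blank run alongside.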

[2] = test system: Ovariectomized rats; experiment: Vaginal keratinization test on ovariectomized rats (Example C.2); type: in vivo; details: estradiol undecylate induced keratinization, per os once daily on days 1-3, active dose = 50% of rats show complete suppression; for minimal effective dose: Rattus norvegicus, po, read-out: LAD (lowest active dose)
Method in brief: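 Ovariectomized rats given s.c. estradiol undecylate (100 μg per 100 g body weight in sesame oil), then oral compound once daily on days 1-3 (vehicle PEG 200). Vaginas assessed histologically one day after last dose; lowest active dose (mg/kg) is the dose giving complete keratinization suppression in 50% of rats.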

| Structure (SMILES) | IC50 ([1]; MCF7) | minimal effective dose [2] | IC50 [1] | LAD (lowest active dose) [2] |
| --- | --- | --- | --- | --- |
| CCOC(=O)CCCC(=O)Nc1ccc(C(C(C)C)n2ccnc2)cc1 (racemic) [Compound 219, (±)-ethyl 5-[[4-[1-(1H-imidazol-1-yl)-2-methylpropyl]phenyl]amino]-5-oxopentanoate] | 3.2 nM | 20 mg/kg |  |  |
| CC(C)C(c1ccc(NC(=O)c2ccc(Br)o2)cc1)n1ccnc1 (racemic) [Compound 220] |  |  | 1.48 nM | 20.00 mg/kg |
| CC(C)C(c1ccc(NC(=O)C(C)(C)Oc2ccc(Cl)cc2)cc1)n1ccnc1 (racemic) [Compound 222] |  |  | 3.32 nM | 20.00 mg/kg |
| CC(C)C(c1ccc(NC(=O)CSc2ccccc2)cc1)n1ccnc1 (racemic) [Compound 223] |  |  | 1.2 nM | 5.00 mg/kg |
| CC(C)C(c1ccc(NC(=O)c2ccnc3ccccc23)cc1)n1ccnc1 (racemic) [Compound 227] |  |  | 7.8 nM | >10.00 mg/kg |
| CC(C)C(c1ccc(NC(=O)c2ccc[nH]c2=O)cc1)n1ccnc1 (racemic) [Compound 228] |  |  | 73 nM | >10.00 mg/kg |
| CC(C)C(c1ccc(NC(=O)c2cccc3c2OCCO3)cc1)n1ccnc1 (racemic) [Compound 230] |  |  | 3.89 nM | >10.00 mg/kg |
| COc1ccc(C(=O)Nc2ccc(C(C(C)C)n3ccnc3)cc2)cc1OC (racemic) [Compound 231] |  |  | 1.86 nM | >10.00 mg/kg |
| CC(C)C(c1ccc(NC(=O)c2ccc3c(c2)OCO3)cc1)n1ccnc1 (racemic) [Compound 232] |  |  | 1.51 nM | >10.00 mg/kg |
| CC(C)C(c1ccc(NC(=O)c2cccc3nccnc23)cc1)n1ccnc1 (racemic) [Compound 233] |  |  | 2.43 nM | >10.00 mg/kg |
| CC(C)C(c1ccc(NC(=O)Cc2ccco2)cc1)n1ccnc1 (racemic) [Compound 235] |  |  | 6.94 nM | 5.00 mg/kg |
| CC(C)C(c1ccc(NC(=O)C(C)(C)O)cc1)n1ccnc1 (racemic) [Compound 236] |  |  | 98.4 nM | 5.00 mg/kg |
| CC(C)C(c1ccc(NC(=O)CC2COc3ccccc3O2)cc1)n1ccnc1 (racemic) [Compound 237] |  |  | 18.2 nM | 5.00 mg/kg |
| CC(C)C(c1ccc(NC(=O)c2ccc(-c3ccccc3)cc2)cc1)n1ccnc1 (racemic) [Compound 238] |  |  | > 100 nM | 5.00 mg/kg |
| CC(C)C(c1ccc(NC(=O)CSc2ccncc2)cc1)n1ccnc1 (racemic) [Compound 239] |  |  | 0.728 nM | 10.00 mg/kg |
| CC(C)C(c1ccc(NC(=O)Cc2ccc3ccccc3c2)cc1)n1ccnc1 (racemic) [Compound 240] |  |  | 1.34 nM | 10.00 mg/kg |
| CC(C)C(c1ccc(NC(=O)c2cnc3ccccc3c2)cc1)n1ccnc1 (racemic) [Compound 241] |  |  | 2.59 nM | 10.00 mg/kg |
| Cc1noc(C)c1C(=O)Nc1ccc(C(C(C)C)n2ccnc2)cc1 (racemic) [Compound 242] |  |  | 2.82 nM | >10.00 mg/kg |
| CC(C)C(c1ccc(NC(=O)C2CSc3ccccc3O2)cc1)n1ccnc1 (racemic) [Compound 243] |  |  | 35.9 nM | 10.00 mg/kg |
| CC(C)C(c1ccc(NC(=O)Cc2cccs2)cc1)n1ccnc1 (racemic) [Compound 244] |  |  | 2.3 nM | 10.00 mg/kg |
| CC(C)C(c1ccc(NC(=O)Cc2ccsc2)cc1)n1ccnc1 (racemic) [Compound 245] |  |  | 2.79 nM | 10.00 mg/kg |
| CC(C)C(c1ccc(NC(=O)Cc2cccc3ccccc23)cc1)n1ccnc1 (racemic) [Compound 246] |  |  | 2.1 nM | 10.00 mg/kg |
| CC(C)C(c1ccc(NC(=O)Cc2ccccn2)cc1)n1ccnc1 (racemic) [Compound 247] |  |  | 35.5 nM | 10.00 mg/kg |
| CC(C)C(c1ccc(NC(=O)c2ccc3c(c2)C(C)(C)CCC3(C)C)cc1)n1ccnc1 (racemic) [Compound 252] |  |  | 2.59 nM | >10.00 mg/kg |
| CC(C)C(c1ccc(NC(=O)C2=Cc3ccccc3OC2)cc1)n1ccnc1 (racemic) [Compound 254] |  |  | 6.47 nM | >5.00 mg/kg |
| CC(C)C(c1ccc(NC(=O)Cc2ccc3c(c2)OCCO3)cc1)n1ccnc1 (racemic) [Compound 255] |  |  | 6.24 nM | 5.00 mg/kg |

| Structure (SMILES) | IC50 ([1]; MCF7) | minimal effective dose [2] | IC50 [1] | LAD (lowest active dose) [2] |
| --- | --- | --- | --- | --- |
| CC(C)C(c1ccc(NC(=O)Cc2ccc3c(c2)C(C)(C)CCC3(C)C)cc1)n1ccnc1 (racemic) [Compound 256] |  |  | 3.2 nM | >2.50 mg/kg |
| CC(C)C(c1ccc(NC(=O)CNC(=O)c2ccccc2)cc1)n1ccnc1 (racemic) [Compound 261] |  |  | 2.22 nM | >10.00 mg/kg |
| CC(C)C(c1ccc(NC(=O)CNC(=O)OCc2ccccc2)cc1)n1ccnc1 (racemic) [Compound 262] |  |  | 7.48 nM | 20.00 mg/kg |
| CC(C)C(c1ccc(NC(=O)N(C)Cc2ccccc2)cc1)n1ccnc1 (racemic) [Compound 263] |  |  | 4.66 nM | >10.00 mg/kg |
| CC(C)C(c1ccc(NC(=O)CC2(CC(=O)O)CCCC2)cc1)n1ccnc1 (racemic) [Compound 264] |  |  | 2.71 nM | >10.00 mg/kg |
| CC(C)C(c1ccc(NC(N)=O)cc1)n1ccnc1 (racemic) [Compound 266, (±)-4-[1-(1H-imidazol-1-yl)-2-methylpropyl]phenylurea] | 31.1 nM | > 10 mg/kg |  |  |
| CC(C)NC(=O)Nc1ccc(C(C(C)C)n2ccnc2)cc1 (racemic) [Compound 268] |  |  | 7.79 nM | >10.00 mg/kg |
| CC(C)C(c1ccc(NC(=O)Nc2cccnc2)cc1)n1ccnc1 (racemic) [Compound 270] |  |  | 5.61 nM | >10.00 mg/kg |
| CC(C)C(c1ccc(NC(=O)Nc2cnccn2)cc1)n1ccnc1 (racemic) [Compound 271] |  |  | 2.45 nM | 10.00 mg/kg |
| CC(C)C(c1ccc(NC(=O)Nc2cccc3ccccc23)cc1)n1ccnc1 (racemic) [Compound 272] |  |  | 4.81 nM | >10.00 mg/kg |
| CC(C)C(c1ccc(NC(=O)Nc2ccccn2)cc1)n1ccnc1 (racemic) [Compound 274, (±)-N-(2-pyridinyl)-N′-[4-[1-(1H-imidazol-1-yl)-2-methylpropyl]phenyl]urea] | 6.64 nM | > 10 mg/kg |  |  |
| CC(C)C(c1ccc(NC(=O)Nc2ccncc2)cc1)n1ccnc1 (racemic) [Compound 275] |  |  | 4.28 nM | >10.00 mg/kg |
| CC(C)C(c1ccc(NC(=O)Nc2ccc3c(c2)OCCO3)cc1)n1ccnc1 (racemic) [Compound 276] |  |  | 16 nM | >10.00 mg/kg |
| CC(C)C(c1ccc(NC(=O)Nc2nc3ccccc3n2C)cc1)n1ccnc1 (racemic) [Compound 277] |  |  | 1.17 nM | >5.00 mg/kg |
| O=C(Cc1ccc(Cl)cc1)Nc1ccc(C(c2ccc(Cl)cc2)n2ccnc2)cc1 (racemic) [Compound 356] |  |  | > 100 nM | >10.00 mg/kg |
| CC(c1ccc(NC(=O)Cc2ccc(Cl)cc2)cc1)n1ccnc1 (racemic) [Compound 358] |  |  | > 100 nM | >10.00 mg/kg |
| CC(C)CC(c1ccc(NC(=O)Cc2ccc(Cl)cc2)cc1)n1ccnc1 (racemic) [Compound 359] |  |  | 6.25 nM | >10.00 mg/kg |
| CC(C)(C)CC(c1ccc(NC(=O)Cc2ccc(Cl)cc2)cc1)n1ccnc1 (racemic) [Compound 360] |  |  | 1.08 nM | 2.50 mg/kg |
| CCC(C)C(c1ccc(NC(=O)Cc2ccc(Cl)cc2)cc1)n1ccnc1 (racemic) [Compound 364] |  |  | 1.41 nM | 2.50 mg/kg |
| CCCC(CCC)C(c1ccc(NC(=O)Cc2ccc(OC)c(OC)c2)cc1)n1ccnc1 (racemic) [Compound 378] |  |  | 1.74 nM | 2.50 mg/kg |
| COCC(C)C(c1ccc(NC(=O)Cc2ccc(OC)c(OC)c2)cc1)n1ccnc1 (racemic) [Compound 404, (±)-(A)-3,4-dimethoxy-N-[4-[1-(1H-imidazol-1-yl)-3-methoxy-2-methylpropyl]phenyl]benzeneacetamide] |  |  | 1.35 nM | 5.00 mg/kg |
| C/C(=C\c1ccccc1)C(=O)N(C)c1ccc(C(C(C)C)n2ccnc2)cc1 (racemic) [Compound 421] |  |  | > 100 nM | >10.00 mg/kg |
| CCN(C(=O)/C(C)=C/c1ccccc1)c1ccc(C(C(C)C)n2ccnc2)cc1 (racemic) [Compound 422] |  |  | > 10 nM | >10.00 mg/kg |
| O=C(Nc1ccc(C(c2ccccc2)n2ccnc2)cc1)c1cnccn1 (racemic) [Compound 424] |  |  | > 100 nM | >10.00 mg/kg |
| CCC(CC)C(c1ccc(N(C)C(=O)Cc2ccc(OC)c(OC)c2)cc1)n1ccnc1 (racemic) [Compound 427] |  |  | 8.34 nM | 2.50 mg/kg |
| CN(C)CC(c1ccc(NC(=O)Oc2ccccc2)cc1)n1ccnc1 (racemic) [Compound 435] |  |  | 2.8 nM | >2.50 mg/kg |
